Experimental data published in patent publication US7884124B2, “Fluoro-substituted inhibitors of D-amino acid oxidase” (Sepracor Inc., priority 2006, dated 2011).

What was measured:
[1] = test system: Chung model rats; assay: Chung model (L5 spinal nerve ligation), paw withdrawal threshold with von Frey hairs; format: in vivo, rat
Description: Adult male Sprague-Dawley rats, weighing 200-230 g at the time of surgery, were used. They were housed in groups of 4 in an air-conditioned room on a 12 h light/dark cycle. Food and water were available ad libitum. The animals were allowed to acclimatize to the experimental environment for three days by leaving them on a lifted metal mesh for at least 40 min. The baseline paw withdrawal threshold (PWT) was examined using a series of graduated von Frey hairs for 3 consecutive days before surgery and re-assessed on the 7th day after surgery and on the 11th to 14th day before drug dosing. The rat Chung model was prepared as described by Kim and Chung (1992). The rat was anaesthetized with 5% isoflurane mixed with oxygen (2 L per min) followed by an i.p. injection of sodium pentobarbitone at 50 mg/kg. The back was shaved and sterilized with 75% ethanol. The animal was placed in a prone position and a para-medial incision was made on the skin covering L4-6 level. The L5 spinal nerve was carefully isolated and tightly ligated with 6/0 silk suture. The wound was then closed in layers after a complete hemostasis. A single dose of antibiotics (Amoxipen 15 mg/rat, ip) was routinely given for prevention of infection after surgery. The animals were placed in a temperature controlled recovery chamber until fully awake before being returned to the home cage. The animals were placed in individual Perspex boxes on a raised metal mesh for at least 40 min before the test. Starting with the filament of lowest force, each filament was applied perpendicularly to the centre of the ventral surface of the paw until slightly bent for 6 seconds. If the animal withdrew or lifted the paw upon stimulation, then a hair with force immediately lower than that tested was used. If no response was observed, then a hair with force immediately higher was tested. The lowest amount of force required to induce reliable responses (positive in 3 out of 5 trials) was recorded as the value of PWT. Only those animals with significant allodynia (PWT≦3.5 g) were selected for drug dosing experiments. The rats in a neuropathic pain state were randomly divided into experimental groups: Vehicle group and 1 group had 8 rats and the gabapentin group had 9 rats. The drug test was carried out 12 to 14 days after surgery. Isotonic 50 mM phosphate buffer (PB), dosed orally at 3 mL/kg, served as the vehicle control. Gabapentin was dissolved in normal saline and given orally at 100 mg/kg. […] The PWT was assessed at 1, 3, 6 and 24 h following drug or vehicle administration. The animals were returned to their home cage for a break (about 30 min) between two neighboring testing time points. One-way analysis of variance (ANOVA) (SPSS software) was used for statistical analysis to compare different groups on the same time points. Paired Student-t test was used to compare different time points in the same group. The significance level was set at P<0.05.

[2] = test system: C57BL/6 male mice; assay: Contextual fear conditioning (freezing 24 hours after training); format: in vivo
Description: Young-adult C57BL/6 male mice were used. Mice were received at 6-7 weeks of age. Upon arrival, mice were assigned unique identification numbers (tail marked) and were group housed in polycarbonate cages with filter tops. All mice were acclimated to the colony room for at least four weeks prior to testing and were subsequently tested at an average age of 10-12 weeks of age. During the period of acclimation, mice were examined on a regular basis, handled, and weighed to assure adequate health and suitability. Mice were maintained on a 12/12 light/dark cycle with the light on at 6:00 a.m. The experiments were always conducted during the light phase of the cycle. The day before the initiation of the experiment, mice were housed single in individual cages and maintained so till the end of the experiment. Animals were randomly assigned across treatment groups. With the exception of testing times, the mice had ad lib access to food and water. Rolipram (0.1 mg/kg) was dissolved in 1% DMSO i.p. 20 min prior to training at a dose volume of 8 ml/kg. To assess contextual conditioning, we use a standardized contextual fear conditioning task originally developed for evaluation of memory in CREB mutant mice (Bourtchouladze, R. et al.; Cell 1994, 79, 59-68). Specifically, on the training day, the mouse is placed into the conditioning chamber for 2 minutes before the onset of the unconditioned stimulus (US), a 0.75 mA foot shock of 2 seconds duration. The US is repeated two times with a 1 min inter-trial interval between shocks. Training is performed using an automated software package. After the last training trial, a mouse is left in the conditioning chamber for another 30 sec and then placed back in its home cage. Contextual memory is tested 24 hours after training. The mouse is placed into the same training chamber and conditioning is assessed by scoring freezing behavior. Freezing is defined as the complete lack of movement in intervals of 5 seconds (Kim et al., 1993; Phillips & LeDoux, 1992; Bourtchouladze et al., 1994; 1998; Abel et al., 1997; Kogan et al., 1997). […]

## O=C(O)c1cc2sccc2[nH]1 [Compound 1, 4H-thieno[3,2-b]pyrrole-5-carboxylic acid]
[1]; 30 mg/kg orally, 1 hour after dosing, before dosing 1.25±0.18 g
  PWT, ipsilateral side: 2.50 ± 0.33 g
[1]; 30 mg/kg orally, 1 hour after dosing, pre-drug level 8.80±0.13 g
  PWT, contralateral side: 8.15 ± 0.45 g
[1]; 30 mg/kg orally, 3 hours after dosing, before dosing 1.25±0.18 g
  PWT, ipsilateral side: 4.44 ± 0.27 g
[1]; 30 mg/kg orally, 3 hours after dosing, pre-drug level 8.80±0.13 g
  PWT, contralateral side: 8.90 ± 0.15 g
[1]; 30 mg/kg orally, 6 hours after dosing, before dosing 1.25±0.18 g
  PWT, ipsilateral side: 5.71 ± 0.66 g
[1]; 30 mg/kg orally, 6 hours after dosing, pre-drug level 8.80±0.13 g
  PWT, contralateral side: 9.70 ± 0.77 g
[1]; 30 mg/kg orally, 24 hours after dosing, before dosing 1.25±0.18 g
  PWT, ipsilateral side: 1.90 ± 0.38 g
[1]; 30 mg/kg orally, 24 hours after dosing, pre-drug level 8.80±0.13 g
  PWT, contralateral side: 8.35 ± 0.50 g
[1]; 30 mg/kg orally, ipsilateral side
  Time after dosing at which the effect on PWT reached a peak: 6 h
[2]; 10 mg/kg P.O.
  Activity in contextual fear conditioning: active

## O=C(O)c1cc2occc2[nH]1 [Compound 11, 4H-furo[3,2-b]pyrrole-5-carboxylic acid]
[1]; oral dose of 10 mg/kg
  Effect on PWT: significantly elevated the PWT
  Time after dosing at which the effect on PWT reached a peak: 6 h
  Time after dosing at which the increase in PWT was first observed: 1 h
[2]; 10 mg/kg p.o. 2 hrs prior to training, vehicle 33.3%+/−5.1%, n=10
  Freezing 24 hours after training: 69.7%+/−3.0%

## NCC1(CC(=O)O)CCCCC1 [Gabapentin, reference compound]
[1]; gabapentin 100 mg/kg orally, 1 hour after dosing, before dosing 1.48±0.22 g
  PWT, ipsilateral side: 3.77 ± 0.42 g
[1]; gabapentin 100 mg/kg orally, 1 hour after dosing, before dosing 9.67±0.68 g
  PWT, contralateral side: 10.11 ± 0.93 g
[1]; gabapentin 100 mg/kg orally, 3 hours after dosing, before dosing 1.48±0.22 g
  PWT, ipsilateral side: 6.27 ± 0.76 g
[1]; gabapentin 100 mg/kg orally, 3 hours after dosing, before dosing 9.67±0.68 g
  PWT, contralateral side: 10.11 ± 0.93 g
[1]; gabapentin 100 mg/kg orally, 6 hours after dosing, before dosing 1.48±0.22 g
  PWT, ipsilateral side: 2.38 ± 0.29 g
[1]; gabapentin 100 mg/kg orally, 6 hours after dosing, before dosing 9.67±0.68 g
  PWT, contralateral side: 8.29 ± 0.42 g
[1]; gabapentin 100 mg/kg orally, 24 hours after dosing, before dosing 1.48±0.22 g
  PWT, ipsilateral side: 2.69 ± 0.60 g
[1]; gabapentin 100 mg/kg orally, 24 hours after dosing, before dosing 9.67±0.68 g
  PWT, contralateral side: 9.40 ± 0.71 g
[1]; gabapentin orally dosed at 100 mg/kg
  Time after dosing at which the effect on PWT reached a peak: 3 h
[1]; gabapentin orally dosed at 100 mg/kg, positive control
  Effect on PWT: significantly increased the PWT

## COc1ccc(C2CNC(=O)C2)cc1OC1CCCC1 (stereo not shown) [Rolipram, reference compound]
[2]; Rolipram 0.1 mg/kg i.p. 20 min prior to training, vehicle 27.2%+/−3.6%
  Freezing 24 hours after training: 44.4%+/−4.4%
